Measured values as given in patent EP3428169A1, “6,6A-DIHYDRO FURO[3,2-B]FURAN-2-(5H)ONE DERIVATIVES, THEIR PREPARATION AND USE FOR TREATING TUMORS” (Universita' Della Calabria, priority 2017, dated 2019).

Legend:
[1] = test system: MDA-MB-231 cells; assay: Cell viability assay: MTT test; type: cell-based; conditions: for minimal effective concentration: Homo sapiens, MDA-MB-231, 72 h treatment, tested at 1, 5, 10, 20, 40 µM, p<0.05 vs untreated, read-out: concentration(s) giving significant reduction in the viability of MDA-MB-231 cells
[2] = test system: MDA-MB-468 cells; assay: Cell viability assay: MTT test; type: cell-based; conditions: for minimal effective concentration: Homo sapiens, MDA-MB-468, 72 h treatment, tested at 1, 5, 10, 20, 40 µM, p<0.05 vs untreated, read-out: concentration(s) giving significant reduction in the viability of MDA-MB-468 cells
[3] = test system: 3T3-L1 cells; assay: Cell viability assay: MTT test, non-tumour cells; type: cell-based, mouse; conditions: 72 h treatment; for reduction in cell viability of 3T3-L1 cells (in words): 1-40 µM; for concentration(s) giving inhibitory effect on viability of 3T3-L1 cells: tested at 1, 5, 10, 20, 40 µM
Experimental: (§1) All cell lines were obtained from the American Type Culture Collection (ATCC, Manassas, VA, USA). The human mammary adenocarcinoma cells (MCF-7) were cultured in DMEM-F12 (Dulbecco's Modified Eagle's Medium (DME) and Ham's F-12 Nutrient Mixture) containing 5% newborn calf serum (NCS), 1% glutamine, 1% penicillin/streptomycin (Sigma-Aldrich, Milan, Italy). The TNBC cells (MDA-MB-231 and MDA-MB-468) were cultured in DMEM-F12 containing 10% heat-inactivated foetal bovine serum (FBS), 1% glutamine, 1% penicillin/streptomycin (Sigma-Aldrich, Milan, Italy). The 3T3L- cells 1 (immortalised mouse fibroblasts) were cultured in DMEM (Dulbecco's Modified Eagle's medium) containing 10% heat-inactivated foetal bovine serum (FBS) and 1% penicillin/streptomycin (Sigma-Aldrich, Milan, Italy). The human mammary epithelial cells MCF-10A were maintained in DMEM-F12 with 5% horse serum (HS), 1% glutamine, 1% penicillin/streptomycin, 5 µg/ml of insulin, 0.25 mg/ml of hydrocortisone, 20 ng/ml of hEGF (human epidermal growth factor) and 0.05 mg/ml of cholera enterotoxin (Sigma-Aldrich, Milan, Italy).
(§2) All cell lines were maintained at 37°C in a 5% CO2 humidified atmosphere and periodically screened for mycoplasma contamination.
(§3) Cell viability was evaluated using a colorimetric assay which exploits the conversion, by the mitochondrial enzyme succinate dehydrogenase (SDH), of the bromide reagent of 3-(4,5-dimethylthiazol-2-il)-2,5-diphenyltetrazole (MTT) (Sigma-Aldrich, Milan, Italy) into crystals of a product called formazan (blue-coloured).
(§4) The cells were seeded in 48-well plates (25,000 cells/well), cultured for 72h in a complete medium before being treated for 72h with different doses (1, 5, 10, 20, 40 µM) of compounds A1, A2, A3, A4 and A5. At the end of the treatment the cells were incubated in darkness for 3h with 50 µl of a solution of MTT in PBS (2 mg/ml). The MTT solution was then carefully removed and the formazan salts that had formed were solubilised by adding 200 µl of DMSO (dimethyl sulphoxide) (Sigma-Aldrich, Milan, Italy), which imparts a pinkish colour to the solution. The coloured product was detected with the spectrophotometric method, by reading absorbance at the wavelength of 570 nm.
(§5) Cell viability was evaluated with the MTT colorimetric assay as described above.

[4] = test system: MCF-10A cells; assay: Cell viability assay: MTT test, non-tumour cells; type: cell-based, human; conditions: 72 h treatment; for reduction in cell viability of MCF-10A cells (in words): 1-40 µM; for concentration(s) giving inhibitory effect on viability of MCF-10A cells: tested at 1, 5, 10, 20, 40 µM
Experimental: as §1, §2, §3, §4, §5

[5] = test system: MCF-7 cells; assay: Cell viability assay: MTT test; type: cell-based, human; conditions: for minimal effective concentration: Homo sapiens, MCF7, 72 h treatment, tested at 1, 5, 10, 20, 40 µM, p<0.05 vs untreated, read-out: concentration(s) giving significant reduction in the viability of MCF-7 cells
[6] = test system: parp-1 protein; assay: Western blot analysis of cleavage/inactivation of parp-1; type: cell-based, human; conditions: 20 µM, 48h
Experimental: The MCF-7, MDA-MB-231 and MDA-MB-468 cells were cultured in a complete medium for 72h in 60 mm plates (1 x 10^6 cells) before being treated for 48h with compound A4 (20 µM). After the treatment the cells were lysed in ice with RIPA (Radio-Immune Precipitation Assay) buffer (50 mM Tris HCI, pH 8.0, 150 mM NaCl, 1% NP-40, 0.5% sodium deoxycholate, 0.1% SDS, sodium dodecyl sulphate), containing protease inhibitors (1 mM phenylmethylsulphonyl fluoride (PMSF), 1mM sodium orthovanadate, 20 µM aprotinin, 20 µM leupeptin) for protein extraction. The lysates were maintained under ice for 10 minutes, then centrifuged for 10 minutes at 13000 rpm at 4°C. The protein content present in the supernatant was determined spectrophotometrically using the Bradford method. The proteins were separated, based on their molecular weight, in a sodium dodecyl sulphate-polyacrylamide gel (12%) (SDS-PAGE) and then transferred onto a nitrocellulose membrane. […]
In order to be able to visualise the interaction between the primary antibody and the protein of interest, the membranes were incubated for 1 hour at room temperature, after washing with TBS-T 1X three times in order to remove any traces of the primary antibody, with a specific secondary antibody conjugated to the enzyme horseradish peroxidase (HRP) and directed against the constant portion of the primary antibody. […] In order to normalise the result, the various membranes were hot stripped for 30 minutes at 50°C with a stripping buffer (62.5 mM Tris-HCI pH 6.7, 2% SDS, 100mM β-mercaptoethanoi) and re-incubated overnight with the antibody anti-glyceraldehyde 3-phosphate dehydrogenase (GAPDH) (1: 1000) (Santa Cruz Biotechnology, Santa Cruz, CA, USA) used as a control for the quantities of proteins loaded.

[7] = test system: bcl-2 protein; assay: Western blot analysis of expression of anti-apoptotic bcl-2; type: cell-based, human; conditions: 20 µM, 48h
Experimental: (§6) A further confirmation of the ability of the compound of formula A4 to induce the death, by apoptosis, of MCF-7, MDA-MB231 and MDA-MB468 tumour cells was given by the evaluation, through western blot analysis, of its effect on the expression of the anti-apoptotic bcl-2 protein and on the appearance of cytochrome c in the cytosolic compartment.
(§7) The cells were cultured in a complete medium for 72 h in 60 mm plates (1 x 10^6 cells) before being treated for 48h with compound A4 (20 µM) in order to evaluate the protein expression of bcl-2 and the expression of the cytochrome c present in the cytosolic protein fraction.
For an analysis of the protein expression of bcl-2, after treatment the cells were lysed in ice with RIPA (Radio-Immune Precipitation Assay) buffer (50 mM Tris HCI, pH 8.0, 150 mM NaCl, 1% NP-40, 0.5% sodium deoxycholate, 0.1% SDS, sodium dodecyl sulphate), containing protease inhibitors (1 mM phenylmethylsulphonyl fluoride (PMSF), 1mM sodium orthovanadate, 20 µM aprotinin, 20 µM leupeptin) for protein extraction. The lysates were maintained under ice for 10 minutes, then centrifuged for 10 minutes at 13000 rpm at 4°C. The protein content present in the supernatant was determined spectrophotometrically using the Bradford method. The proteins were separated, based on their molecular weight, in a sodium dodecyl sulphate-polyacrylamide gel (12%) (SDS-PAGE) and then subjected to a western blot analysis as described above, using a specific primary anti-bcl-2 antibody (1:500) (Santa Cruz Biotechnology, Santa Cruz, CA, USA).

[8] = test system: cytochrome c; assay: Western blot analysis of cytochrome c in the cytosolic protein fraction; type: cell-based, human; conditions: 20 µM, 48h
Experimental: as §6, §7
For the purpose of analysing the protein expression of the cytochrome c present in the cytosolic fraction, after treatment the cells were collected by centrifugation at 2500 rpm for 10 minutes at 4°C. The pellets were resuspended in 50 µl of sucrose buffer (250 mM sucrose, 10 mM Hepes, 10 mM KCl, 1.5 mM MgCl2, 1 mM EDTA, 1 mM EGTA) (Sigma-Aldrich, Milan, Italy) containing 20µM of aprotinin, 20 µM of leupeptin, 1mM of PMSF and 0.05% of digitonin (Sigma-Aldrich, Milan, Italy).
The cells were incubated for 20 minutes at 4°C and then centrifuged at 13000 rpm for 15 minutes at 4°C. The protein content present in the supernatant was determined spectrophotometrically using the Bradford method. The proteins were separated, based on their molecular weight, in a sodium dodecyl sulphate-polyacrylamide gel (15%) (SDS-PAGE) and then subjected to a western blot analysis as described above, using a specific primary anti-cytochrome c antibody (1:1000) (Santa Cruz Biotechnology, Santa Cruz, CA, USA).

Compound: CC1(C)CC2(C)OC(=O)C(c3ccccc3)=C2O1 (stereo not shown) [Compound A1, 5,5,6a-trimethyl-3-phenyl-6,6a-dihydrofuro[3,2-b]furan-2(5H)-one]
- minimal effective concentration [1]: ≥ 10 µM
- minimal effective concentration [2]: ≥ 5 µM
- reduction in cell viability of 3T3-L1 cells (in words) [3]: more substantial
- concentration(s) giving inhibitory effect on viability of 3T3-L1 cells [3]: 40 µM
- reduction in cell viability of MCF-10A cells (in words) [4]: more substantial
- concentration(s) giving inhibitory effect on viability of MCF-10A cells [4]: ≥ 20 µM
- minimal effective concentration [5]: ≥ 10 µM

Compound: CC1(C)CC2(C)OC(=O)C([Si](C)(C)C)=C2O1 (stereo not shown) [Compound A2, 5,5,6a-trimethyl-3-(trimethylsilyl)-6,6a-dihydrofuro[3,2-b]furan-2(5H)-one]
- minimal effective concentration [1]: ≥ 1 µM
- minimal effective concentration [2]: ≥ 1 µM
- reduction in cell viability of 3T3-L1 cells (in words) [3]: modest
- concentration(s) giving inhibitory effect on viability of 3T3-L1 cells [3]: ≥ 20 µM
- reduction in cell viability of MCF-10A cells (in words) [4]: modest
- concentration(s) giving inhibitory effect on viability of MCF-10A cells [4]: ≥ 5 µM
- minimal effective concentration [5]: ≥ 1 µM

Compound: CC12CCOC1=C([Si](C)(C)C)C(=O)O2 (stereo not shown) [Compound A3, 6a-methyl-3-(trimethylsilyl)-6,6a-dihydrofuro[3,2-b]furan-2(5H)-one]
- minimal effective concentration [1]: ≥ 5 µM
- minimal effective concentration [2]: ≥ 5 µM
- reduction in cell viability of 3T3-L1 cells (in words) [3]: more substantial
- concentration(s) giving inhibitory effect on viability of 3T3-L1 cells [3]: 40 µM
- reduction in cell viability of MCF-10A cells (in words) [4]: more substantial
- concentration(s) giving inhibitory effect on viability of MCF-10A cells [4]: ≥ 10 µM
- minimal effective concentration [5]: ≥ 10 µM

Compound: CC1(C)CC2(c3ccccc3)OC(=O)C([Si](C)(C)C)=C2O1 (stereo not shown) [Compound A4, 5,5-dimethyl-6a-phenyl-3-(trimethylsilyl)-6,6a-dihydrofuro[3,2-b]furan-2(5H)-one]
- cleavage of the parp-1 protein ([6]; MCF-7 cells): the cleaved form of the parp-1 protein may be seen
- cleavage of the parp-1 protein ([6]; MDA-MB-231 cells): the cleaved form of the parp-1 protein may be seen
- cleavage of the parp-1 protein ([6]; MDA-MB-468 cells): the cleaved form of the parp-1 protein may be seen
- expression of bcl-2 ([7]; MCF-7 cells): decreasing the expression of bcl-2
- expression of bcl-2 ([7]; MDA-MB-231 cells): decreasing the expression of bcl-2
- expression of bcl-2 ([7]; MDA-MB-468 cells): decreasing the expression of bcl-2
- minimal effective concentration [1]: 10 to 40 µM
- level of cytochrome c in the cytosolic fraction ([8]; MCF-7 cells): increased to a significant degree
- level of cytochrome c in the cytosolic fraction ([8]; MDA-MB-231 cells): increased to a significant degree
- level of cytochrome c in the cytosolic fraction ([8]; MDA-MB-468 cells): increased to a significant degree
- minimal effective concentration [2]: 10 to 40 µM
- reduction in cell viability of 3T3-L1 cells (in words) [3]: not influenced
- reduction in cell viability of MCF-10A cells (in words) [4]: not influenced
- minimal effective concentration [5]: 1 to 40 µM

Compound: CC1(C)CC2(c3ccccc3)OC(=O)C=C2O1 (stereo not shown) [Compound A5, 5,5-dimethyl-6a-phenyl-6,6a-dihydrofuro[3,2-b]furan-2(5H)-one]
- effect on the viability of MDA-MB-231 cells (in words) ([1]; 72 h treatment, 1-40 µM): modest but significant effect
- minimal effective concentration [1]: 20 to 40 µM
- effect on the viability of MDA-MB-468 cells (in words) ([2]; 72 h treatment, 1-40 µM): slightly more effective
- minimal effective concentration [2]: 10 to 40 µM
- reduction in cell viability of 3T3-L1 cells (in words) [3]: not influenced
- reduction in cell viability of MCF-10A cells (in words) [4]: not influenced
- effect on the viability of MCF-7 cells (in words) ([5]; 72 h treatment, 1-40 µM): modest but significant effect
- minimal effective concentration [5]: 5 to 40 µM
